Patent US20240058464A1 (Fortis Therapeutics, Inc., priority 2021, published 2024)

System: CD46 expression
Assay: CD46 expression by RNA-sequencing in unpaired pre-treatment and post-treatment tumor biopsies
Format: in vivo, human
[1] = Breast Cancer, Post minus Pre, unpaired biopsies, log2-transformed counts
[2] = Breast Cancer, post- vs pre-treatment unpaired biopsies
[3] = Breast Cancer, post-treatment biopsies, unpaired, RNA-seq log2-transformed normalized counts
[4] = Non-Small Cell Lung Cancer, post minus pre, unpaired biopsies
[5] = Non-Small Cell Lung Cancer, post vs pre, unpaired biopsies
[6] = Non-Small Cell Lung Cancer, post-treatment biopsies, log2-transformed RNA-seq counts

Q: How did the CD46 expression diff [1] turn out when `CCC1=C[C@@H]2CN(C1)Cc1c([nH]c3ccccc13)[C@@](C(=O)OC)(c1cc3c(cc1OC)N(C)[C@H]1[C@@](O)(C(=O)OC)[C@H](OC(C)=O)[C@]4(CC)C=CCN5CC[C@]31[C@@H]54)C2` [vinorelbine] was run?
A: −0.13

Q: What about the “CD46 expression Percentage change” value [2] of the same compound?
A: −2.0%

Q: What about the “CD46 expression Post” value [3] of the same compound?
A: 6.24

Q: What about the CD46 expression diff [4] of the same compound?
A: −0.20

Q: What about the “CD46 expression Percentage change” value [5] of the same compound?
A: −3.3%

Q: And the “CD46 expression Post” value [6]?
A: 5.98

Q: Which results are given for `O=P(O)(O)C(O)(Cn1ccnc1)P(=O)(O)O` [zoledronic acid]?
A: CD46 expression diff [1]: 0.41; CD46 expression Percentage change [2]: 6.4%; CD46 expression Post [3]: 6.78

Q: ado-trastuzumab emtansine was tested. Which “CD46 expression Percentage change” value (in vivo) did it give?
A: −0.8%

Q: And the “CD46 expression Post” value (in vivo)?
A: 6.20

Q: And the CD46 expression diff (in vivo)?
A: −0.05

Q: Which CD46 expression diff (Colorectal Cancer, Post minus Pre, unpaired biopsies, log2-transformed counts) does the source give for aflibercept here?
A: 0.21

Q: What about the “CD46 expression Percentage change” value (Colorectal Cancer, post- vs pre-treatment unpaired biopsies) of the same compound?
A: 3.3%

Q: What about the “CD46 expression Post” value (Colorectal Cancer, post-treatment biopsies, unpaired, RNA-seq log2-transformed normalized counts) of the same compound?
A: 6.58

Q: How did the CD46 expression diff [1] turn out when denosumab was run?
A: 0.40

Q: What about the “CD46 expression Percentage change” value [2] of the same compound?
A: 6.2%

Q: And the “CD46 expression Post” value [3]?
A: 6.82

Q: For olaratumab, which CD46 expression diff (Sarcoma, Post minus Pre, unpaired biopsies, log2-transformed counts) is on record?
A: 0.11

Q: And the “CD46 expression Percentage change” value (Sarcoma, post- vs pre-treatment unpaired biopsies)?
A: 2.3%

Q: What about the “CD46 expression Post” value (Sarcoma, post-treatment biopsies, unpaired, RNA-seq log2-transformed normalized counts) of the same compound?
A: 5.10

Q: pertuzumab was tested. Which CD46 expression diff [1] did it give?
A: −0.08

Q: And the “CD46 expression Percentage change” value [2]?
A: −1.3%

Q: What about the “CD46 expression Post” value [3] of the same compound?
A: 6.25

Q: Which results are given for ramucirumab?
A: CD46 expression diff [4]: −0.17; CD46 expression Percentage change [5]: −2.8%; CD46 expression Post [6]: 6.13; CD46 expression Pre (Non-Small Cell Lung Cancer, pre-treatment biopsies, log2-transformed RNA-seq counts): 6.30
